Data on 2 compounds can be found in patent publication EP1285920A1, “C10 Ester sustituted taxanes as antitumor agents” (Florida State University Research Foundation, Inc., priority 2001, dated 2003).

Series [1] has as its system NCI-H1299 (H1299) carcinoma. As to the kind of experiment: In vivo evaluation against NCI-H1299 human lung carcinoma xenograft (i.v., Example 11). The method, then:
Antitumor compounds were formulated for an i.v. dosing regime prepared in the following vehicle: 10% ethanol, 10% Cremophor and 80% isotonic saline.
Vehicle control animals were dosed twice intravenously with half the total volume being given separated by one hour. The study was terminated on Day 60.
A complete response is obtained if the tumor is not palpable at the end of the study.
A tumor scoring system was designed to provide a more quantitative ranking of efficacy (therapeutic potential) among the antitumor agents evaluated against the different human solid tumor xenografts. Each mouse in a study was given a score of from 1 to 10 at the end of the study. The scores can be summarized as follows:
The individual score for each mouse was averaged into a mean score for each treatment group. […]
The treatment protocol for the H1299 test was identical to the SK-MES test protocol. […]

The test system of another series is HCT116 carcinoma. As to conditions: i.v. qd x 1 at MTD, Day 60. In outline:
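Mice bearing HCT116 tumours received a single i.v. maximum tolerated dose per compound, formulated in 5% ethanol, 5% Cremophor, 90% isotonic saline. Study ended on Day 60; complete response meant no palpable tumour at study end.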

In a further series the test system is MX-1 carcinoma. In outline: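 Mice dosed with a single i.v. bolus (qd x 1) at each compound's MTD, formulated in 5% ethanol, 5% Cremophor, 90% isotonic saline. Study ended Day 60; complete response = tumor not palpable at study end.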
The test system of series [2] is MX-1 human breast carcinoma. It is filed as in vivo. The method, then:
(§1) Antitumor compounds were administered orally in a study to investigate whether such a formulation is efficacious against the MX-1 human breast carcinoma xenograft. Antitumor compound 0499 was formulated as Solution 1 in Example 6. Antitumor compound 0550 was formulated as Solution 2 in Example 6. Antitumor compound 0611 was formulated as Solution 3 in Example 6. Antitumor compound 0748 was formulated as Solution 4 in Example 6. Other antitumor compounds were formulated similarly. The compounds were prepared in a vehicle of 90% saline, 5% Cremophor, and 5% ethanol.
(§2) Female nu/nu mice (11-12 weeks of age; implanted subcutaneously with 1 mm^3 MX-1 human breast carcinoma fragments in the flank) were sorted into one control group (n=10) and four treatment (n=6) groups (group mean tumor size of 47-49 mg). The study was terminated on Day 63.

The next series concerns blood cell populations. Briefly: Effect of oral treatment on blood cell populations and body weight in the MX-1 study (Example 22). It is filed as in vivo, nu/nu mice. The conditions noted are these: mg/kg: 0499 80, 0550 73, 0611 113, 0748 200. The method, then:
as §1, §2
In addition to survival and tumor regression responses, the effect of treatment on blood cell populations was assessed. The major effect of these antitumor compounds on blood cell populations was a marked reduction in the neutrophil cell number. As well, monocyte depletion correlated fairly well with neutrophil reduction for each antitumor compound. […] There was a correlation between antitumor activity and reduced neutrophil count. In general, toxicity (as determined by neutrophil depletion) and weight loss correlated with efficacy. […] Importantly, the toxicities observed with the very efficacious antitumor compounds were manageable and reversible; neutrophil count and body weight rebounded from their low points in just a few days. Table 20 summarizes the weight reduction, neutrophil and monocyte measurements on Day 4, with tumor weight reduction calculated at Day 18: Table 20

The mark [3] stands for this setting: number of mice, single oral bolus Day 1, mg/kg: 0499 80, 0550 73, 0611 113, 0748 200, 6 mice/group, Day 63.
Setting [4] is: Day 4, vs vehicle, single oral bolus.

Take `CCC(=O)O[C@H]1C(=O)[C@@]2(C)[C@H]([C@H](OC(=O)c3ccccc3)[C@]3(O)C[C@H](OC(=O)[C@H](O)[C@@H](NC(=O)OC(C)(C)C)c4ccccn4)C(C)=C1C3(C)C)[C@]1(OC(C)=O)CO[C@@H]1C[C@@H]2O` [Compound 0503]: the “Partial Response” value in series [1] (i.v. split dose qd x 1) came out at 0; in the series on HCT116 carcinoma (number of 5 mice, tumor smaller than on Day 1, doses as in E3), 4; with MX-1 carcinoma (number of 6 mice, tumor smaller than on Day 1, i.v. qd x 1 at MTD, Day 60, doses as in E17) it was 2. Moreover, the “Stable Disease” value in series [1] (i.v. split dose qd x 1) worked out at 3; in the series on HCT116 carcinoma (number of 5 mice, tumor did not reach 2.0 g by end of study, doses as in E3), 0; with MX-1 carcinoma (number of 6 mice, tumor did not reach 2.0 g by end of study, i.v. qd x 1 at MTD, Day 60, doses as in E17), 0. Further, the “antitumor activity” value in series [1] (i.v. split dose qd x 1) is on record as “significant efficacy”. Also, the Survivors is 5 in series [1] (i.v. split dose qd x 1, six mice per group); 5 in the series on HCT116 carcinoma (number of 5 mice, doses as in E3); 6 in the series on MX-1 carcinoma (number of 6 mice, i.v. qd x 1 at MTD, Day 60, doses as in E17). Besides, the “Mean Score” value in series [1] (tumor score 1 to 10 per mouse, group mean) was found to be 5.5 ± 1.6; with HCT116 carcinoma (5 mice/group, doses as in E3) it was 9.2 ± 0.2; in the series with MX-1 carcinoma (i.v. qd x 1 at MTD, 6 mice/group, Day 60, doses as in E17) it was 9.7 ± 0.2. In addition, the “Complete Response” value in the series on HCT116 carcinoma (number of 5 mice, tumor not palpable at end of study, doses as in E3) was 1; with MX-1 carcinoma (number of 6 mice, tumor not palpable at end of study, i.v. qd x 1 at MTD, Day 60, doses as in E17), 4. Besides, the “Toxic Deaths” value is reported as 0 with HCT116 carcinoma (number of 5 mice, mg/kg: Taxol 36 (split doses), 0503 72.6, 0536 49, 0663 159, 0670 123, 0687 159, 0706 108, 0908 159, 0947 76.9, 0951 72.6, 0983 72.6, 0999 49, 1003 49, 1011 108) and 0 in the series with MX-1 carcinoma (number of 6 mice, i.v. qd x 1 at MTD, Day 60, mg/kg: Taxol 36 (split dose), 0503 72.6, 0536 49, 0663 159, 0670 123, 0687 159, 0706 108, 0908 159, 0947 76.9, 0951 72.6, 0983 67.4, 0999 49, 1003 49, 1011 108). In addition, the “treated animals with durable complete responses and partial responses” value in the series with MX-1 carcinoma (MX-1, single i.v. MTD) is 100%.
Consider `CCC(=O)O[C@H]1C(=O)[C@@]2(C)[C@H]([C@H](OC(=O)c3ccccc3)[C@]3(O)C[C@H](OC(=O)[C@H](O)[C@H](C=C(C)C)NC(=O)OC(C)(C)C)C(C)=C1C3(C)C)[C@]1(OC(C)=O)CO[C@@H]1C[C@@H]2O` [Compound 0499], for which the complete tumor regressions result in series [2] (MX-1, single oral bolus Day 1, six mice per group (0611: five evaluable), ended Day 63) is listed as “two”. Also, the “Mean Day of Survival (n)” value in series [2] (days until tumor reached 1.5 g, single oral bolus Day 1, mg/kg: 0499 80, 0550 73, 0611 113, 0748 200, 6 mice/group, terminated Day 63) was 56.6 ± 2.1 (3). In series [2] (number of mice, single oral bolus Day 1, mg/kg: 0499 80, 0550 73, 0611 113, 0748 200, 6 mice/group), the “Toxic Deaths” value was 0. Further, in series [2] (setting [3]), the “Complete Response” value worked out at 2, the “Partial Response” value is 0 and the “Stable Disease” value was 1. Also, the “% Reduction (Weight)” value in series [2] (po, 432 h) is on record as 100.0%. Besides, in the series on blood cell populations (setting [4]), the “% Reduction (Monocytes)” value is 24.0% and the “% Reduction (Neutrophils)” value came out at 91.6%. In the series with blood cell populations (Day 4, single oral bolus Day 1), the “Monocytes (K/µL)” value was determined as 0.073 K/µL and the “Neutrophils (K/µL)” value is given as 0.077 K/µL. Further, the “Maximum Weight Loss (Day)” value in the series on blood cell populations (body weight, day of maximum in parentheses in the cell, single oral bolus Day 1) is recorded as -11.4% (7).
